Values joined by “and” are separate entries in the source; they are usually repeats but may differ in a detail not shown here. Equal entries are not always repeated.
Details: Fluid (supercritical or subcritical phases); for mass density: Buoyancy - hydrostatic balance with magnetic suspension - one sinker; for viscosity: vibrating wire

CCC [propane]
Details | mass density | viscosity
373.15 K, 4515.1 kPa | 229.821 kg/m3 | 0.02377 mPa·s
373.15 K, 4530.1 kPa | 241.836 kg/m3 | 0.02518 mPa·s
373.15 K, 4530.2 kPa | 241.88 kg/m3 | 0.02519 mPa·s
373.15 K, 4556 kPa | 256.611 kg/m3 | 0.02701 mPa·s
373.15 K, 4556.1 kPa | 256.634 kg/m3 | 0.027 mPa·s
373.15 K, 4576.2 kPa | 264.588 kg/m3 | 0.02805 mPa·s
373.15 K, 4576.3 kPa | 264.609 kg/m3 | 0.02806 mPa·s
373.15 K, 4606.1 kPa | 273.294 kg/m3 and 273.287 kg/m3 | 0.02925 mPa·s and 0.02926 mPa·s
373.15 K, 4657.2 kPa | 283.68 kg/m3 | 0.03078 mPa·s
373.15 K, 4657.5 kPa | 283.727 kg/m3 | 0.03078 mPa·s
373.15 K, 4809.3 kPa | 301.877 kg/m3 | 0.03369 mPa·s
373.15 K, 4809.5 kPa | 301.894 kg/m3 | 0.03367 mPa·s
373.15 K, 5105.6 kPa | 320.889 kg/m3 | 0.03705 mPa·s
373.15 K, 5105.8 kPa | 320.902 kg/m3 | 0.03706 mPa·s
373.15 K, 5614.7 kPa | 339.536 kg/m3 | 0.04075 mPa·s
373.15 K, 5616.4 kPa | 339.584 kg/m3 | 0.04077 mPa·s
373.15 K, 5652.1 kPa | 340.592 kg/m3 | 0.04096 mPa·s
373.15 K, 5664.6 kPa | 340.939 kg/m3 | 0.04104 mPa·s
373.15 K, 5665.9 kPa | 340.974 kg/m3 | 0.04105 mPa·s
373.15 K, 6602.8 kPa | 360.84 kg/m3 | 0.04555 mPa·s
373.15 K, 6603.5 kPa | 360.852 kg/m3 | 0.04553 mPa·s
373.15 K, 8140.1 kPa | 381.197 kg/m3 | 0.05077 mPa·s
373.15 K, 8140.4 kPa | 381.2 kg/m3 | 0.05076 mPa·s
373.15 K, 10482 kPa | 401.46 kg/m3 | 0.05673 mPa·s
373.15 K, 10483 kPa | 401.469 kg/m3 | 0.05674 mPa·s
373.15 K, 13841 kPa | 421.334 kg/m3 and 421.333 kg/m3 | 0.06347 mPa·s and 0.06343 mPa·s
373.15 K, 18565 kPa | 441.166 kg/m3 | 0.07127 mPa·s
373.15 K, 18567 kPa | 441.173 kg/m3 | 0.07127 mPa·s
373.15 K, 25008 kPa | 460.907 kg/m3 | 0.08006 mPa·s and 0.08024 mPa·s
373.15 K, 25010 kPa | 460.912 kg/m3 | 0.08022 mPa·s and 0.08013 mPa·s
373.15 K, 28973 kPa | 470.682 kg/m3 | 0.08526 mPa·s
373.15 K, 28975 kPa | 470.686 kg/m3 | 0.08531 mPa·s and 0.08536 mPa·s and 0.0853 mPa·s
373.15 K, 29829 kPa | 472.623 kg/m3 | 0.08626 mPa·s
373.15 K, 29830 kPa | 472.624 kg/m3 | 0.08626 mPa·s
423.15 K, 79.37 kPa | 0.99883 kg/m3 | 0.01136 mPa·s
423.15 K, 158.25 kPa | 1.9998 kg/m3 | 0.01137 mPa·s
423.15 K, 313.56 kPa | 3.9954 kg/m3 | 0.0114 mPa·s
423.15 K, 466.92 kPa | 5.9988 kg/m3 | 0.01142 mPa·s
423.15 K, 467.03 kPa | 6.0003 kg/m3 | 0.01143 mPa·s
423.15 K, 611.2 kPa | 7.9148 kg/m3 | 0.01145 mPa·s
423.15 K, 611.47 kPa | 7.9184 kg/m3 | 0.01145 mPa·s
423.15 K, 763.44 kPa | 9.9704 kg/m3 | 0.01148 mPa·s
423.15 K, 763.61 kPa | 9.9726 kg/m3 | 0.01148 mPa·s
423.15 K, 920.8 kPa | 12.133 kg/m3 | 0.01151 mPa·s and 0.01152 mPa·s
423.15 K, 1060.2 kPa | 14.082 kg/m3 | 0.01155 mPa·s
423.15 K, 1061.3 kPa | 14.098 kg/m3 | 0.01155 mPa·s
423.15 K, 1192.7 kPa | 15.966 kg/m3 | 0.01158 mPa·s
423.15 K, 1193.5 kPa | 15.977 kg/m3 | 0.01158 mPa·s
423.15 K, 1334.7 kPa | 18.018 kg/m3 | –

Reference: the NIST ThermoML archive (doi:10.1021/je101178u)
